Source: ChEMBL document CHEMBL4049458, “Structure-Based Optimization of Thiophene[3,2-d]pyrimidine Derivatives as Potent HIV-1 Non-nucleoside Reverse Transcriptase Inhibitors with Improved Potency against Resistance-Associated Variants” (J Med Chem, 2017)

Legend:
[1] = Selectivity index, ratio of CC50 for human MT4 cells to EC50 for reverse transcriptase E138K mutant in human MT4 cells infected HIV1 3B
[2] = Cytotoxicity against human MT4 cells assessed as cell viability after 5 days by MTT assay; assay type: cell-based
[3] = Selectivity index, ratio of CC50 for human MT4 cells to EC50 for reverse transcriptase K103N mutant in human MT4 cells infected HIV1 3B
[4] = Selectivity index, ratio of CC50 for human MT4 cells to EC50 for reverse transcriptase F227L/V106A double mutant in human MT4 cells infected HIV1 3B
[5] = Selectivity index, ratio of CC50 for human MT4 cells to EC50 for reverse transcriptase L100I mutant in human MT4 cells infected HIV1 3B
[6] = Selectivity index, ratio of CC50 for human MT4 cells to EC50 for reverse transcriptase Y188L mutant in human MT4 cells infected HIV1 3B
[7] = test system: Human immunodeficiency virus 2; experiment: Antiviral activity against HIV2 ROD harboring reverse transcriptase infected in human MT4 cells assessed as protection against virus induced cytotoxicity after 5 days by MTT assay; assay type: functional, cell-based; conditions: Human immunodeficiency virus 2, ISOLATE ROD, MT4, 120 h
[8] = Selectivity index, ratio of CC50 for human MT4 cells to EC50 for HIV1 RES056 reverse transcriptase K103N/Y181C double mutant infected in human MT4 cells
[9] = Selectivity index, ratio of CC50 for human MT4 cells to EC50 for wild type HIV1 3B harboring reverse transcriptase infected in human MT4 cells
[10] = Selectivity index, ratio of CC50 for human MT4 cells to EC50 for reverse transcriptase Y181C mutant in human MT4 cells infected HIV1 3B
[11] = test system: Human immunodeficiency virus 1; experiment: Antiviral activity against wild type HIV1 3B harboring reverse transcriptase infected in human MT4 cells assessed as protection against virus induced cytotoxicity after 5 days by MTT assay; assay type: functional, cell-based; conditions: Human immunodeficiency virus 1, 3B, MT4, 120 h

SMILES | selectivity ratio ([1]; MT4 cells) | CC50 at 120 h [2] | selectivity ratio ([3]; MT4 cells) | selectivity ratio ([4]; MT4 cells) | selectivity ratio ([5]; MT4 cells) | selectivity ratio ([6]; MT4 cells) | EC50 [7] | selectivity ratio ([8]; MT4 cells) | selectivity ratio ([9]; MT4 cells) | selectivity ratio ([10]; MT4 cells) | EC50 [11] | selectivity ratio [1] | selectivity ratio [3] | selectivity ratio [4] | selectivity ratio [5] | selectivity ratio [6] | selectivity ratio [8] | selectivity ratio [9] | selectivity ratio [10]
Cc1cc(/C=C/C#N)cc(C)c1Oc1nc(NC2CCN(Cc3ccccc3Cl)CC2)nc2ccsc12 | 31 | 4930 nM | 169 | 68 | 162 | 24 | > 4930 nM | 30 | 179 | 37 | 27.4 nM |  |  |  |  |  |  |  | 
COC(=O)c1ccc(CN2CCC(Nc3nc(Oc4c(C)cc(C#N)cc4C)c4ccsc4n3)CC2)cc1 | 805 | 28600 nM | 982 | 109 | 214 | 181 | > 28600 nM | 19 | 5450 | 316 | 5.26 nM |  |  |  |  |  |  |  | 
Cc1cc(/C=C/C#N)cc(C)c1Oc1nc(NC2CCN(Cc3ccc(C(N)=O)cc3)CC2)nc2ccsc12 |  | ≥ 3150 nM |  |  |  |  |  |  |  |  | 1.26 nM |  |  |  |  |  |  |  | 
O=C1Nc2ccc(Cl)cc2[C@@](C#CC2CC2)(C(F)(F)F)O1 [EFAVIRENZ] |  | > 6330 nM |  |  |  |  |  |  |  |  |  |  |  |  |  |  |  |  | 
Cc1cc(/C=C/C#N)cc(C)c1Oc1nc(NC2CCN(Cc3cccc(C#N)c3)CC2)nc2ccsc12 | 101 | 2820 nM | 470 | 107 | 352 | 55 | > 2830 nM | 24 | 639 | 105 | 4.43 nM |  |  |  |  |  |  |  | 
Cc1cc(C#N)cc(C)c1Oc1nc(NC2CCN(Cc3cccc(C(N)=O)c3)CC2)nc2sccc12 | > 5610 | > 48700 nM | > 5490 | > 1930 | > 4630 | > 2870 | > 48700 nM | > 10 | > 9420 | > 5300 | 5.17 nM |  |  |  |  |  |  |  | 
CCOC(=O)c1ccc(CN2CCC(Nc3nc(Oc4c(C)cc(/C=C/C#N)cc4C)c4sccc4n3)CC2)cc1 | ≥ 96 | ≥ 3610 nM | ≥ 273 | ≥ 42 | ≥ 134 | ≥ 22 | > 3610 nM | ≥ 22 | ≥ 247 | ≥ 110 | 14.6 nM |  |  |  |  |  |  |  | 
Cc1cc(/C=C/C#N)cc(C)c1Oc1nc(NC2CCN(Cc3ccc([N+](=O)[O-])cc3)CC2)nc2ccsc12 | 86 | 3520 nM | 365 | 33 | 134 | 30 | > 3520 nM | 32 | 456 | 115 | 7.73 nM |  |  |  |  |  |  |  | 
Cc1cc(C#N)cc(C)c1Oc1nc(NC2CCCN(Cc3ccc(C(N)=O)cc3)C2)nc2ccsc12 (stereo unspecified) |  | 19500 nM |  |  |  |  |  |  |  |  | 3220 nM |  |  |  |  |  |  |  | 
Cc1cc(/C=C/C#N)cc(C)c1Oc1nc(NC2CCN(Cc3ccc(Br)cc3)CC2)nc2ccsc12 | 44 | 6790 nM | 227 | 42 | 117 | 24 | > 6790 nM | 44 | 240 | 53 | 28.3 nM |  |  |  |  |  |  |  | 
Cc1cc(C#N)cc(C)c1Oc1nc(NC2CCN(Cc3ccc(S(N)(=O)=O)cc3)CC2C(=O)O)nc2ccsc12 (stereo unspecified) | 8 | 27600 nM | 33 | 11 | 17 | 9 | > 27600 nM | < 1 | 38 | 8 | 723 nM |  |  |  |  |  |  |  | 
Cc1ccccc1CN1CCC(Nc2nc(Oc3c(C)cc(/C=C/C#N)cc3C)c3sccc3n2)CC1 | 22 | 2830 nM | 114 | 46 | 60 | 16 | > 2830 nM | 3 | 180 | 33 | 15.7 nM |  |  |  |  |  |  |  | 
Cc1cc(C#N)cc(C)c1Oc1nc(NC2CCC(NCc3ccc(O)cc3)CC2)nc2ccsc12 (stereo unspecified) | 5 | 20100 nM | 4 | < 1 | < 1 | < 1 | > 20100 nM | < 1 | 15 | < 1 | 1310 nM |  |  |  |  |  |  |  | 
Cc1cc(/C=C/C#N)cc(C)c1Oc1nc(NC2CCN(Cc3ccccc3F)CC2)nc2ccsc12 | 74 | 2480 nM | 361 | 61 | 32 | 18 | > 2480 nM | 14 | 392 | 83 | 6.34 nM |  |  |  |  |  |  |  | 
Cc1cc(C#N)cc(C)c1Oc1nc(NC2CCC(NCc3ccc(C#N)cc3)CC2)nc2ccsc12 (stereo unspecified) | < 1 | 5150 nM | < 1 | < 1 | < 1 | ≤ 1 | > 5150 nM | < 1 | 1.3 | < 1 | 3810 nM |  |  |  |  |  |  |  | 
Cc1cc(C#N)cc(C)c1Oc1nc(NC2CCC(NCc3ccc(Br)cc3)CC2)nc2ccsc12 (stereo unspecified) | 4 | 3450 nM | ≤ 5 | < 1 | ≤ 2 | < 1 | > 3450 nM | < 1 | 10 | < 1 | 339 nM |  |  |  |  |  |  |  | 
Cc1cc(C#N)cc(C)c1Oc1nc(NC2CCC(NCc3ccc(C(N)=O)cc3)CC2)nc2ccsc12 (stereo unspecified) |  | 7720 nM |  |  |  |  |  |  |  |  | 121 nM |  |  |  |  |  |  |  | 
Cc1ccc(CN2CCC(Nc3nc(Oc4c(C)cc(/C=C/C#N)cc4C)c4sccc4n3)CC2)cc1 | 90 | 2910 nM | 258 | 22 | 91 | 21 | > 2910 nM | 20 | 326 | 98 | 8.91 nM |  |  |  |  |  |  |  | 
Cc1cc(C#N)cc(C)c1Oc1nc(NC2CCC(NCc3cccc(C(F)(F)F)c3)CC2)nc2ccsc12 (stereo unspecified) | < 1 | 707 nM | < 1 | < 1 | < 1 | < 1 | > 707 nM | < 1 | 4 | < 1 | 174 nM |  |  |  |  |  |  |  | 
Cc1cc(/C=C/C#N)cc(C)c1Oc1nc(NC2CCN(Cc3ccccc3C#N)CC2)nc2ccsc12 | 53 | 2280 nM | 130 | 60 | 151 | 18 | > 2280 nM | 7 | 236 | 66 | 9.66 nM |  |  |  |  |  |  |  | 
Cc1cc(C#N)cc(C)c1Oc1nc(NC2CCN(Cc3ccc(C(N)=O)cc3)CC2)nc2sccc12 | 6 | 4930 nM | 11 | < 1 | 9 | < 1 | > 4930 nM | 3 | 32 | 20 | 152 nM |  |  |  |  |  |  |  | 
Cc1ccnc2c1NC(=O)c1cccnc1N2C1CC1 [NEVIRAPINE] |  | > 15000 nM |  |  |  |  |  |  |  |  |  |  |  |  |  |  |  |  | 
Cc1cc(/C=C/C#N)cc(C)c1Oc1nc(NC2CCN(Cc3cccc(Br)c3)CC2)nc2ccsc12 | 61 | 7950 nM | 269 | 85 | 279 | 48 | > 7950 nM | 37 | 308 | 62 | 25.8 nM |  |  |  |  |  |  |  | 
CCOC(=O)C1CN(Cc2ccc(S(N)(=O)=O)cc2)CCC1Nc1nc(Oc2c(C)cc(C#N)cc2C)c2sccc2n1 (stereo unspecified) | 7 | 4240 nM | 18 | 3 | 11 | < 1 | > 4240 nM | ≤ 5 | 32 | 23 | 134 nM |  |  |  |  |  |  |  | 
Cc1cc(C#N)cc(C)c1Oc1nc(NC2CCCN(Cc3ccc(S(N)(=O)=O)cc3)C2)nc2ccsc12 (stereo unspecified) |  | 1170 nM |  |  |  |  |  |  |  |  | > 1170 nM |  |  |  |  |  |  |  | 
Cc1cc(C#N)cc(C)c1Oc1nc(NC2CCC(NCc3cccc(C(N)=O)c3)CC2)nc2ccsc12 (stereo unspecified) |  | 9210 nM |  |  |  |  |  |  |  |  | 135 nM |  |  |  |  |  |  |  | 
Cc1cn([C@H]2C[C@H](N=[N+]=[N-])[C@@H](CO)O2)c(=O)[nH]c1=O [ZIDOVUDINE] |  | > 7480 nM |  |  |  |  |  |  |  |  | 5.81 nM | > 1030 | > 1430 | > 1560 | > 1990 | > 1180 | > 675 | 625 | > 1120
